Source: ChEMBL document CHEMBL1127764, “An efficient method for the synthesis of guanidino prodrugs” (Bioorg Med Chem Lett, 1994)

Key:
[1] = species on record: Rattus norvegicus; experiment: Half-life in vitro in rat plasma; No detectable degradation over 2 hr; no detectable degradation over 2 hours; type: ADME
[2] = test system: Caco-2; experiment: Permeability coefficient in Caco-2 cell line monolayers was tested; type: functional, Homo sapiens
[3] = Half-life in vitro in rat plasma; type: ADME
[4] = Half-life in vitro in pig liver; type: ADME, tissue-based, Sus scrofa

N=C(N)NCc1ccccc1
T1/2 [1]: Stable
Pc [2]: 2.24 ×10⁻⁶ cm/s

CC(C)(C)C(=O)OCOC(=O)/N=C(/NCc1ccccc1)NC(=O)OCOC(=O)C(C)(C)C
half-life [3]: 1.12 min
Pc [2]: 3.69 ×10⁻⁶ cm/s

NC(=O)CCCCCCN=C(N)N
half-life [4]: < 5 min

O=C(/N=C(/NCc1ccccc1)NC(=O)OCc1ccccc1)OCc1ccccc1
half-life [3]: 12.5 min
Pc [2]: 0.51 ×10⁻⁶ cm/s

O=C(Cc1ccccc1)OCOC(=O)/N=C(/NCc1ccccc1)NC(=O)OCOC(=O)Cc1ccccc1
half-life [3]: 0.13 min
Pc [2]: 8.55 ×10⁻⁶ cm/s

O=C(/N=C(/NCc1ccccc1)NC(=O)Oc1ccccc1)Oc1ccccc1
half-life [3]: 0.46 min
Pc [2]: 6.45 ×10⁻⁶ cm/s
